{"source": "the supplement of paper PMC10307832", "assay_in_all_cases": "relative viability (nuclei count vs DMSO), 5 days (fraction); higher = more cells survive", "key": {"NCI-H727": {"tested_on": "NCI-H727", "how_it_was_run": "(§1)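 After 5 days of treatment, lung cancer cells in 1536-well plates were fixed and stained in a single step (final 0.05% Triton X-100, 1% formaldehyde, 1 ug/ml Hoechst) and their nuclei counted on 4× images. Treatment had been applied by pin tool the day after seeding as one drug alone or as a fixed anchor-drug dose with five library-drug doses (not always all listed) in √10 steps. Relative viability is the nuclei count of treated wells divided by that of vehicle wells, and values are medians of duplicate plates.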"}, "NCI-H441": {"tested_on": "NCI-H441", "how_it_was_run": "as §1"}, "NCI-H2087": {"tested_on": "NCI-H2087", "how_it_was_run": "as §1"}, "H3255": {"tested_on": "H3255", "how_it_was_run": "as §1"}, "NCI-H1915": {"tested_on": "NCI-H1915", "how_it_was_run": "as §1"}, "ABC-1": {"tested_on": "ABC-1", "how_it_was_run": "as §1"}, "NCI-H520": {"tested_on": "NCI-H520", "how_it_was_run": "as §1"}, "NCI-H661": {"tested_on": "NCI-H661", "how_it_was_run": "as §1"}, "201T": {"tested_on": "201T", "how_it_was_run": "as §1"}, "NCI-H2023": {"tested_on": "NCI-H2023", "how_it_was_run": "as §1"}, "A-427": {"tested_on": "A-427", "how_it_was_run": "as §1"}}, "data": [{"compound": "CC(=O)O[C@@]12CO[C@@H]1C[C@H](O)[C@@]1(C)C(=O)[C@H](O)C3=C(C)[C@@H](OC(=O)[C@H](O)[C@@H](NC(=O)OC(C)(C)C)c4ccccc4)C[C@@](O)([C@@H](OC(=O)c4ccccc4)[C@H]21)C3(C)C", "note": "[Docetaxel] + C[C@]1(O)C[C@@H](c2nc(-c3ccc4ccc(-c5ccccc5)nc4c3)c3c(N)nccn32)C1 [Linsitinib] (partner 1 µM)", "values": [{"measurement": "relative viability", "setting": "NCI-H727; first compound 0.002 µM", "value": 0.22}, {"measurement": "relative viability", "setting": "NCI-H727; first compound 0.006325 µM", "value": 0.211}, {"measurement": "relative viability", "setting": "NCI-H727; first compound 0.02 µM", "value": 0.21}, {"measurement": "relative viability", "setting": "NCI-H441; first compound 0.0002 µM", "value": 0.405}, {"measurement": "relative viability", "setting": "NCI-H441; first compound 0.000632 µM", "value": 0.27}, {"measurement": "relative viability", "setting": "NCI-H441; first compound 0.002 µM", "value": 0.172}, {"measurement": "relative viability", "setting": "NCI-H441; first compound 0.006325 µM", "value": 0.224}, {"measurement": "relative viability", "setting": "NCI-H441; first compound 0.02 µM", "value": 0.117}, {"measurement": "relative viability", "setting": "NCI-H2087; first compound 0.0002 µM", "value": 0.848}, {"measurement": "relative viability", "setting": "NCI-H2087; first compound 0.000632 µM", "value": 0.68}, {"measurement": "relative viability", "setting": "NCI-H2087; first compound 0.002 µM", "value": 0.301}, {"measurement": "relative viability", "setting": "NCI-H2087; first compound 0.006325 µM", "value": 0.326}, {"measurement": "relative viability", "setting": "NCI-H2087; first compound 0.02 µM", "value": 0.156}, {"measurement": "relative viability", "setting": "H3255; first compound 0.0002 µM", "value": 0.824}, {"measurement": "relative viability", "setting": "H3255; first compound 0.000632 µM", "value": 0.866}, {"measurement": "relative viability", "setting": "H3255; first compound 0.002 µM", "value": 0.516}, {"measurement": "relative viability", "setting": "H3255; first compound 0.006325 µM", "value": 0.223}, {"measurement": "relative viability", "setting": "H3255; first compound 0.02 µM", "value": 0.209}, {"measurement": "relative viability", "setting": "NCI-H1915; first compound 0.0002 µM", "value": 1.07}, {"measurement": "relative viability", "setting": "NCI-H1915; first compound 0.000632 µM", "value": 1.06}, {"measurement": "relative viability", "setting": "NCI-H1915; first compound 0.002 µM", "value": 0.724}, {"measurement": "relative viability", "setting": "NCI-H1915; first compound 0.006325 µM", "value": 0.239}, {"measurement": "relative viability", "setting": "NCI-H1915; first compound 0.02 µM", "value": 0.156}, {"measurement": "relative viability", "setting": "ABC-1; first compound 0.0002 µM", "value": 0.834}, {"measurement": "relative viability", "setting": "ABC-1; first compound 0.000632 µM", "value": 1}, {"measurement": "relative viability", "setting": "ABC-1; first compound 0.002 µM", "value": 0.424}, {"measurement": "relative viability", "setting": "ABC-1; first compound 0.006325 µM", "value": 0.286}, {"measurement": "relative viability", "setting": "ABC-1; first compound 0.02 µM", "value": 0.218}, {"measurement": "relative viability", "setting": "NCI-H520; first compound 0.0002 µM", "value": 1.06}, {"measurement": "relative viability", "setting": "NCI-H520; first compound 0.000632 µM", "value": 0.887}, {"measurement": "relative viability", "setting": "NCI-H520; first compound 0.002 µM", "value": 0.277}, {"measurement": "relative viability", "setting": "NCI-H520; first compound 0.006325 µM", "value": 0.182}, {"measurement": "relative viability", "setting": "NCI-H520; first compound 0.02 µM", "value": 0.133}, {"measurement": "relative viability", "setting": "NCI-H661; first compound 0.0002 µM", "value": 0.593}, {"measurement": "relative viability", "setting": "NCI-H661; first compound 0.000632 µM", "value": 0.683}, {"measurement": "relative viability", "setting": "NCI-H661; first compound 0.002 µM", "value": 0.45}, {"measurement": "relative viability", "setting": "NCI-H661; first compound 0.006325 µM", "value": 0.449}, {"measurement": "relative viability", "setting": "NCI-H661; first compound 0.02 µM", "value": 0.261}, {"measurement": "relative viability", "setting": "201T; first compound 0.0002 µM", "value": 1.04}, {"measurement": "relative viability", "setting": "201T; first compound 0.000632 µM", "value": 1.07}, {"measurement": "relative viability", "setting": "201T; first compound 0.002 µM", "value": 0.944}, {"measurement": "relative viability", "setting": "201T; first compound 0.006325 µM", "value": 0.48}, {"measurement": "relative viability", "setting": "201T; first compound 0.02 µM", "value": 0.284}, {"measurement": "relative viability", "setting": "NCI-H2023; first compound 0.0002 µM", "value": 0.703}, {"measurement": "relative viability", "setting": "NCI-H2023; first compound 0.000632 µM", "value": 0.72}, {"measurement": "relative viability", "setting": "NCI-H2023; first compound 0.002 µM", "value": 0.144}, {"measurement": "relative viability", "setting": "NCI-H2023; first compound 0.006325 µM", "value": 0.159}, {"measurement": "relative viability", "setting": "NCI-H2023; first compound 0.02 µM", "value": 0.0739}, {"measurement": "relative viability", "setting": "A-427; first compound 0.0002 µM", "value": 1.09}, {"measurement": "relative viability", "setting": "A-427; first compound 0.000632 µM", "value": 1.12}, {"measurement": "relative viability", "setting": "A-427; first compound 0.002 µM", "value": 1.02}, {"measurement": "relative viability", "setting": "A-427; first compound 0.02 µM", "value": 0.227}]}]}
